Results taken from US10335363B2, “Skin care composition and method of making the same” (The Procter & Gamble Company, priority 2015, dated 2019).

System: interleukin-18 (IL-18)
Experiment: Skin sensitization potential (IL-18 production in HEK)
Assay type: cell-based, human
Settings: fold change of IL-18 vs vehicle control, HEK lysates, 16 hours
Text: It is possible for a material to not be cytotoxic, and yet be unsafe due to provoking an allergic reaction upon skin contact. Typically, initial exposure to an allergen sensitizes the immune system, and following exposures cause an allergic response. Recent progress in understanding the mechanisms of skin sensitization identified interleukin-18 (IL-18) production in normal human epidermal keratinocytes (HEK) as a useful biomarker for skin contact sensitization (Corsini, et al., “Use of IL-18 Production In a Human Keratinocyte Cell Line to Discriminate Contact Sensitizers from Irritants and Low Molecular Weight Respiratory Allergens.” Toxicol In Vitro. 2009 August; 23(5):789-96; Teunis, et al., “Transfer of a Two-tiered Keratinocyte Assay: IL-18 Production by NCTC2544 to Determine the Skin Sensitizing Capacity and Epidermal Equivalent Assay to Determine Sensitizer Potency.” Toxicol In Vitro. 2013 April; 27(3):1135-50). […] Thus, IL-18 production in HEK was evaluated to determine sensitization potential.
Normal human adult epidermal keratinocytes (HEK) were cultured as described above for the cytoxicity evaluation. […] The cell lysates were collected, and IL-18 was quantified using Human IL-18 ELISA Kit (Catalog #7620, produced by MBL International Co., Woburn, Mass., USA). […] Fold changes of IL-18 levels between test articles and respective vehicle controls were calculated and compared to pPD. […]

For `Nc1ccc(N)cc1` [benchmark sensitizer, para-phenylenediamine], the “IL18 Maximum fold” value was 7.8 fold).
